This passage reports melting point and IC50 results from patent US8937068B2, “Pyridopyrazine derivatives and their use” (Zentaris GmbH, priority 2005, dated 2015).

One series addresses p38alpha (Homo sapiens (Human), UniProt Q16539). Put plainly: Cell-free kinase assay (ALPHA technology), p38alpha. Format: biochemical. The following applies: 10 μM ATP. The method, then:
(§1) The inhibitory effect of the compounds according to the invention was tested on various serine/threonine, tyrosine and lipid kinases in enzymatic assays. Recombinant human kinases such as, for example, Erk2, PI3Kalpha, -beta, -gamma, -delta, p38alpha, p38gamma, Jnk1, Jnk2 and others were used in this case, partly as full-length kinases, partly as shortened fragments, but at least consisting of the functional kinase domains. The commercial kinase proteins (Proqinase, Upstate) were used as recombinant fusion proteins with GST (glutathion-S-transferase) or His-Tag. Depending on the type of substrate, the various kinase reactions were quantified by means of suitable ALPHA™ beads (Perkin-Elmer).
(§2) The substance testing is described in detail hereinafter for the Erk assay.
(§3) a) MAPK-ALPHAs (e.g. Erk2): the test substance, 0.625 ng Erk2 (#14-173, Upstate), 10 μM ATP and 15 nM biotinylated MBP (myelin basic protein) substrate were incubated on a 384-well Optiplate (Perkin-Elmer) in a volume of 15 μl for 1 h in 25 mM Tris, 10 mM MgCl2, 0.1% Tween-20, 100 μM NaVO4, 2 mM DTT at pH 7.5. The kinase reaction was then stopped by adding 10 μl of the ALPHA bead mixes (10 μg/ml, #6760617/Perkin-Elmer) pre-incubated with anti-phospho MBP antibody (320 pM, #05-429/Upstate) in 25 mM Tris, 200 mM NaCl, 110 nM EDTA and 0.3% BSA and left to stand overnight. b) PI3K-ALPHAs (e.g. PI3Kalpha): the test substance, 1 ng PI3Kalpha (#14-602, Upstate), 100 μM ATP and 20 μM PIP2 substrate (#P4508, Echelon) were incubated on a 384-well Optiplate (Perkin-Elmer) for 1 h in 50 mM Hepes, 50 mM NaCl, 5 mM MgCl2, 0.05% Chaps, 5 mM DTT at pH 7.4. The kinase reaction was then stopped by adding ALPHA bead mixes (10 μg/ml, #6760603/Perkin-Elmer) pre-incubated with 1 nM GST:Grp1 fusion protein (Upstate) and 15 nM biotinylated PIP3 (#C-39B6/Echelon) in 50 mM Hepes, 50 mM NaCl, 50 mM EDTA and 0.1% BSA and left to stand overnight.
(§4) The fluorescence was detected the following morning in a Fusion™^aα-system (Perkin-Elmer).
(§5) The %-inhibition values per substance concentration were calculated by means of the following formula from the raw data determined in the Fusion™ ? :
(§6) Eight determinations were made for each control and two for the substance samples. The 0% control either contains no ATP or no substrate, the 100% control (fully active kinase) contains no test substance. The IC50 values were determined using GraphPadPrism.

A further series addresses Erk2 (Homo sapiens, UniProt P28482). As to the kind of experiment: Cell-free kinase assay (ALPHA technology), Erk2. Format: biochemical. The settings on record: 10 μM ATP. The procedure: The inhibitory effect of the compounds according to the invention was tested on various serine/threonine, tyrosine and lipid kinases in enzymatic assays. […] The commercial kinase proteins (Proqinase, Upstate) were used as recombinant fusion proteins with GST (glutathion-S-transferase) or His-Tag. Depending on the type of substrate, the various kinase reactions were quantified by means of suitable ALPHA™ beads (Perkin-Elmer). The substance testing is described in detail hereinafter for the Erk assay. […] a) MAPK-ALPHAs (e.g. […] The kinase reaction was then stopped by adding ALPHA bead mixes (10 μg/ml, #6760603/Perkin-Elmer) pre-incubated with 1 nM GST:Grp1 fusion protein (Upstate) and 15 nM biotinylated PIP3 (#C-39B6/Echelon) in 50 mM Hepes, 50 mM NaCl, 50 mM EDTA and 0.1% BSA and left to stand overnight. The fluorescence was detected the following morning in a Fusion™^aα-system (Perkin-Elmer). […] Eight determinations were made for each control and two for the substance samples. […] The IC50 values were determined using GraphPadPrism.

The next series has as its system Jnk1 + Jnk2. As to the kind of experiment: Cell-free kinase assay (ALPHA technology), Jnk1 + Jnk2. Format: biochemical, human. The settings on record: 10 μM ATP. The procedure: as §1, §2, §3, §4, §5, §6
A further series deals with PI3Kalpha (Homo sapiens (Human), UniProt P42336). Put plainly: Cell-free kinase assay (ALPHA technology), PI3Kalpha. In kind it is biochemical. The following applies: 100 μM ATP. The method, then:
as §1, §2, §3, §4, §5, §6

Bounds are passed on as bounds.

p38alpha, sequence (Q16539 whole entry, the tested form may be a part): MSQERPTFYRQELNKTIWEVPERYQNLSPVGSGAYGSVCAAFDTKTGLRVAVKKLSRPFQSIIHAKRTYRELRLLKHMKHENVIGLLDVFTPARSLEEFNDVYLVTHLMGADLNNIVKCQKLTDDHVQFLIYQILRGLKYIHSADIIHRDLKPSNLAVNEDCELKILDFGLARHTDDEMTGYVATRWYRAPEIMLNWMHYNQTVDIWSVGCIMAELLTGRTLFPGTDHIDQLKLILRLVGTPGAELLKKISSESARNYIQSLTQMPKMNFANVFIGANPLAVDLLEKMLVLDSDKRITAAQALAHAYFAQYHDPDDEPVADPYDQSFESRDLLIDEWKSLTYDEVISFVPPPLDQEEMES
PI3Kalpha, sequence (P42336 whole entry): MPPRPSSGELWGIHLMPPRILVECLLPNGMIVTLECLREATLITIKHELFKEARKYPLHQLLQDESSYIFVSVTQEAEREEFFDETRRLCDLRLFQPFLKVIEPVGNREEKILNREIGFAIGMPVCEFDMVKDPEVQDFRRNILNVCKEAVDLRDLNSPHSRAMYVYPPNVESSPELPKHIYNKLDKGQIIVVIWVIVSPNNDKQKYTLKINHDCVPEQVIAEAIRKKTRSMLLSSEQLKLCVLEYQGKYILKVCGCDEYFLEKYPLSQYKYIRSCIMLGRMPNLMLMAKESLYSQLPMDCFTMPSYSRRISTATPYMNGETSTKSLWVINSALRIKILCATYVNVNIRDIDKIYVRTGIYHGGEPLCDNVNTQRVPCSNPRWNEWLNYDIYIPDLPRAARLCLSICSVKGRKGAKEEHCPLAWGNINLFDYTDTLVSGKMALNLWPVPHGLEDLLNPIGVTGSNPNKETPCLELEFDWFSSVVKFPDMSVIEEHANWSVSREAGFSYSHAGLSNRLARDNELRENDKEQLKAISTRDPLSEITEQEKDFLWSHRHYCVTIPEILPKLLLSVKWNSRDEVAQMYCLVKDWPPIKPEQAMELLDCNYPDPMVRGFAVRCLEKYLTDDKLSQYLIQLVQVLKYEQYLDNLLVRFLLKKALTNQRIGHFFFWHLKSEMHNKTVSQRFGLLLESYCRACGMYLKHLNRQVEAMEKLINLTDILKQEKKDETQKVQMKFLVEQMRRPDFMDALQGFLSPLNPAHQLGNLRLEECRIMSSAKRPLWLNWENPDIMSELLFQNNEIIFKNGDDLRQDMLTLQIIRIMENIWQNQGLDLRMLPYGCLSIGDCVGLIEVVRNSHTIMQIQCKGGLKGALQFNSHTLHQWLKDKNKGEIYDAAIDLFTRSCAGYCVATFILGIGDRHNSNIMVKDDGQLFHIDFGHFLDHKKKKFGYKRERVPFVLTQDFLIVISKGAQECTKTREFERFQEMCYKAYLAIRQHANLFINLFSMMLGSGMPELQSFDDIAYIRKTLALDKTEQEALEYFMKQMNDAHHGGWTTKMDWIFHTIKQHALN
PI3Kalpha, sequence (P27986 whole entry partner): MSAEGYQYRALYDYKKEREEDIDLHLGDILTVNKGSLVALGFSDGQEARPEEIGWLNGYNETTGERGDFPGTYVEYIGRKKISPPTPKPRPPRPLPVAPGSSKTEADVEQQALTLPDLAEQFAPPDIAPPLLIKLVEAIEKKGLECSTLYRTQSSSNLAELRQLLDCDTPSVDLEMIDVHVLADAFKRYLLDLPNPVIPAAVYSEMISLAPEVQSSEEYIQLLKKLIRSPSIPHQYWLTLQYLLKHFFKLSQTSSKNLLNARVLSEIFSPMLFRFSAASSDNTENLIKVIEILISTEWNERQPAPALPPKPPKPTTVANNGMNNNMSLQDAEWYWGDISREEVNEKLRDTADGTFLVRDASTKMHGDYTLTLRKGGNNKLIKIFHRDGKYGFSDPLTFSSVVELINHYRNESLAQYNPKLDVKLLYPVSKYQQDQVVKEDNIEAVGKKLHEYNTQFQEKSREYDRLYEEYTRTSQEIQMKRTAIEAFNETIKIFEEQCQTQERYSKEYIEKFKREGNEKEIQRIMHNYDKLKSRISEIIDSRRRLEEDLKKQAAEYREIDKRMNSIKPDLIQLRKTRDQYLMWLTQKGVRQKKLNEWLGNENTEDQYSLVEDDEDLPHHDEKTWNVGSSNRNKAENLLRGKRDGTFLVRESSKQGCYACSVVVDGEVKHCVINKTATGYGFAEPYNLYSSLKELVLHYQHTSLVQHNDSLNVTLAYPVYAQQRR
Erk2, sequence (P28482 2-360 limits assumed): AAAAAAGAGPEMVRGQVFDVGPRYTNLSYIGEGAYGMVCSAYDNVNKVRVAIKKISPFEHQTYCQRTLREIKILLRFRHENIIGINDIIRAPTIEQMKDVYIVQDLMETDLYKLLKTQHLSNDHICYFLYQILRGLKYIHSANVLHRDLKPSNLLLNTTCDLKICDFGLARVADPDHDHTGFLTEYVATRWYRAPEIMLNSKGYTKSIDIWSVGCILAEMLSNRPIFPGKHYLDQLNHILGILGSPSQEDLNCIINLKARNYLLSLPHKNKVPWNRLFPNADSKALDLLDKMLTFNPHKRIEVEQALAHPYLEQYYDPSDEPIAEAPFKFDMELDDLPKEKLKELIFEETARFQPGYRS

By melting point is commonly meant the temperature, or range, at which the solid turns liquid. With `C=CCNC(=S)Nc1ccc2ncc(-c3ccc(OC)cc3)nc2n1` [Compound 6, 1-allyl-3-[3-(4-methoxy-phenyl)-pyrido[2,3-b]pyrazin-6-yl]-thiourea], the melting point was 240 to 241 °C (dec.). In turn, `CCNC(=O)Nc1ccc2nc(-c3ccccn3)c(-c3ccccn3)nc2n1` [Compound 36, 1-(2,3-Di-pyridin-2-yl-pyrido[2,3-b]pyrazin-6-yl)-3-ethyl-urea] returned a melting point of 236 to 237 °C. The same measure, in the same setting: the value for `O=C(Nc1ccc(Cl)c(C(F)(F)F)c1)Nc1ccc2ncc(-c3ccccc3)nc2n1` [Compound 16, 1-(4-chloro-3-trifluoromethyl-phenyl)-3-(3-phenyl-pyrido[2,3-b]pyrazin-6-yl)-urea] was 250 °C; that for `C=CCNC(=S)Nc1ccc2ncc(-c3ccc4c(c3)OCO4)nc2n1` [Compound 28, 1-allyl-3-(3-benzo[1,3]dioxol-5-yl-pyrido[2,3-b]pyrazin-6-yl)-thiourea] was 218 to 220 °C (dec.); that for `C=CCNC(=S)Nc1cnc2nc(-c3ccc([N+](=O)[O-])cc3)cnc2c1` [Compound 137, 1-Allyl-3-[3-(4-nitro-phenyl)-pyrido[2,3-b]pyrazin-7-yl]-thiourea] was 250 °C (dec.). In the case of `S=C(Nc1ccc2ncc(-c3ccccc3)nc2n1)NC1CC1` [Compound 11, 1-cyclopropyl-3-(3-phenyl-pyrido[2,3-b]pyrazin-6-yl)-thiourea], the melting point lay within 233 to 234 °C. As for `C=CCNC(=S)Nc1ccc2ncc(-c3ccc(O)cc3)nc2n1.Cl`, the melting point was 160 to 161 °C (dec.). A word on the IC50: it is the midpoint of a concentration-inhibition curve. As to `C=CCNC(=O)Nc1ccc2ncc(-c3ccc(O)cc3)nc2n1` [Compound 25, 1-allyl-3-[3-(4-hydroxy-phenyl)-pyrido[2,3-b]pyrazin-6-yl]-urea], the melting point was 240 °C (dec.). At p38alpha, the IC50 is greater than 100 µM. Moreover, the midpoint of inhibition against Erk2, the IC50, lay at 0.076 µM. Also, the half-maximal inhibitory concentration (IC50) in the series with Jnk1 + Jnk2 was greater than 31.6 µM. The molecule also had an IC50 against PI3Kalpha of 1.5 µM. The molecule `Cc1ccc(NC(=O)Nc2ccc3ncc(-c4ccccc4)nc3n2)cc1` [Compound 15, 1-(3-phenyl-pyrido[2,3-b]pyrazin-6-yl)-3-p-tolyl-urea] had a melting point of 298 to 299 °C. As to `C=CCNC(=S)Nc1ccc2ncc(-c3ccc4ccccc4c3)nc2n1` [Compound 5, 1-allyl-3-(3-naphth-2-yl-pyrido[2,3-b]pyrazin-6-yl)-thiourea], the melting point is 242 to 243 °C (dec.).

For the molecule `C=CCNC(=S)Nc1ccc2ncc(-c3ccccc3)nc2n1` [Compound 1, 1-Allyl-3-(3-phenyl-pyrido[2,3-b]pyrazin-6-yl)-thiourea], the melting point was 239 to 240 °C (dec.). Moreover, the IC50 against p38alpha was greater than 31.6 µM. The IC50 in the series on Jnk1 + Jnk2 is greater than 31.6 µM. The molecule also yielded an IC50 on PI3Kalpha of 0.9 µM. On to `C/C=C/NC(=S)Nc1ccc2nc(-c3ccc(O)cc3)c(-c3ccc(O)cc3)nc2n1` [Compound 33, 1-[2,3-bis-(4-hydroxy-phenyl)-pyrido[2,3-b]pyrazin-6-yl]-3-((E)-propenyl)-thiourea], for which the melting point was 240 °C (dec.). With `O=[N+]([O-])c1ccc(NC(=S)Nc2ccc3ncc(-c4ccc5ccccc5c4)nc3n2)cc1` [Compound 8, 1-(3-naphth-2-yl-pyrido[2,3-b]pyrazin-6-yl)-3-(4-nitro-phenyl)-thiourea], the melting point was 260 to 261 °C (dec.).

With `C=C(C)CNC(=S)Nc1ccc2ncc(-c3ccccc3)nc2n1` [Compound 4, 1-(2-methyl-allyl)-3-(3-phenyl-pyrido[2,3-b]pyrazin-6-yl)-thiourea], the melting point is 225 to 226 °C (dec.). Take `Fc1ccc(NC(=S)Nc2ccc3ncc(-c4ccccc4)nc3n2)cc1` [Compound 14, 1-(4-fluoro-phenyl)-3-(3-phenyl-pyrido[2,3-b]pyrazin-6-yl)-thiourea]: the melting point was 225 to 226 °C. Consider `C=C(C)CNC(=S)Nc1ccc2ncc(-c3ccc(OC)cc3)nc2n1` [Compound 3, 1-[3-(4-methoxy-phenyl)-pyrido[2,3-b]pyrazin-6-yl]-3-(2-methyl-allyl)-thiourea], for which the melting point is 251 to 252 °C (dec.). Molecule `CCNC(=O)Nc1ccc2nc(C)c(C)nc2n1` [Compound 37, 1-(2,3-Dimethyl-pyrido[2,3-b]pyrazin-6-yl)-3-ethyl-urea] came in with a melting point of 246 to 248 °C.

For `C=CCNC(=S)Nc1ccc2ncc(-c3ccc(C(=O)OCC)cc3)nc2n1` [Compound 26, 4-[6-(3-allyl-thioureido)-pyrido[2,3-b]pyrazin-3-yl]-benzoic acid ethyl ester], the melting point was 223 to 224 °C.

In the case of `S=C(Nc1ccc2ncc(-c3ccccc3)nc2n1)NC1CCCCC1` [Compound 18, 1-cyclohexyl-3-(3-phenyl-pyrido[2,3-b]pyrazin-6-yl)-thiourea], the melting point was in the range of 230 to 232 °C. As to `CC(C)(C)NC(=S)Nc1ccc2ncc(-c3ccccc3)nc2n1` [Compound 10, 1-tert.butyl-3-(3-phenyl-pyrido[2,3-b]pyrazin-6-yl)-thiourea], the melting point is 227 °C (dec.). The same measure, in the same setting: under `CNC(=S)Nc1ccc2ncc(-c3ccccc3)nc2n1` [Compound 12, 1-methyl-3-(3-phenyl-pyrido[2,3-b]pyrazin-6-yl)-thiourea] stands 253 to 254 °C. On the same count and under the same terms, the value for `O=C(NCCN1CCOCC1)Nc1ccc2ncc(-c3ccccc3)nc2n1` [Compound 17, 1-(2-Morpholin-4-yl-ethyl)-3-(3-phenyl-pyrido[2,3-b]pyrazin-6-yl)-urea] was 226 °C; that for `CC(C)NC(=S)Nc1ccc2ncc(-c3ccccc3)nc2n1` [Compound 19, 1-isopropyl-3-(3-phenyl-pyrido[2,3-b]pyrazin-6-yl)-thiourea] was 229 to 230 °C; that for `C=CCNC(=S)Nc1ccc2ncc(-c3ccc([N+](=O)[O-])cc3)nc2n1` [Compound 24, 1-allyl-3-[3-(4-nitro-phenyl)-pyrido[2,3-b]pyrazin-6-yl]-thiourea] was 244 °C (dec.). Take `O=C(Nc1ccc2ncc(-c3ccccc3)nc2n1)NC1CC1` [Compound 21, 1-cyclopropyl-3-(3-phenyl-pyrido[2,3-b]pyrazin-6-yl)-urea]: the melting point is 158 to 160 °C.

As to `S=C(NCc1ccco1)Nc1ccc2ncc(-c3ccccc3)nc2n1` [Compound 20, 1-furan-2-ylmethyl-3-(3-phenyl-pyrido[2,3-b]pyrazin-6-yl)-thiourea], the melting point is 250 °C (dec.). Take `COc1ccc(-c2cnc3ccc(NC(=S)Nc4ccc([N+](=O)[O-])cc4)nc3n2)cc1` [Compound 9, 1-[3-(4-methoxy-phenyl)-pyrido[2,3-b]pyrazin-6-yl]-3-(4-nitro-phenyl)-thiourea]: the melting point is 250 to 251 °C (dec.). In the case of `O=C(NCCc1ccccc1)Nc1ccc2ncc(-c3ccccc3)nc2n1` [Compound 35, 1-Phenethyl-3-(3-phenyl-pyrido[2,3-b]pyrazin-6-yl)-urea], the melting point is 250 °C (dec.).
